The values that follow come from ChEMBL document CHEMBL5236565, “Design, synthesis, and biological evaluation of novel 2'-methyl-2'-fluoro-6-methyl-7-alkynyl-7-deazapurine nucleoside analogs as anti-Zika virus agents” (Eur J Med Chem, 2022).

Data set [1] has as its system Zika virus. Kind of data set: Antiviral activity against ZIKV MR766 infected in human SNB-19 cells assessed as reduction in viral induced cytopathic effect by measuring reduction in PFU measured after 4 days by neutral red staining based plaque assay. It counts as functional, organism-based. Conditions: MR766, SNB-19, 96 h; for EC90: time 4 day. (In general: Protection from cytopathic effect is a common read-out in antiviral testing.)

Data set [2] deals with NS5 (Zika virus, UniProt A0A143MHK7). Briefly: Binding affinity to N-terminal His-tagged recombinant ZIKV ZG-01 RdRp (272 to 903 residues) expressed in Escherichia coli rosetta by surface plasmon resonance assay. On the technique in general: In SPR one partner is held on a chip, and binding of the other changes the refractive index at the surface.
The subject of data set [3] is Zika virus. Briefly: Antiviral activity against ZIKV ZG-01 infected in human A549 cells assessed as reduction in viral induced cytopathic effect by measuring reduction in PFU measured after 4 days by neutral red staining based plaque assay. To be noted: ZG-01, A549, 96 h; for EC90: time 4 day. In kind it is functional, organism-based.
Data set [4] deals with Vero. Briefly: Downregulation of ZIKV E protein cleaved caspase 3 expression in African green monkey Vero cells at 5 to 25 uM measured after 48 hrs by Western blotting analysis. Conditions: Chlorocebus sabaeus, dose 5-25 µM. In kind it is functional, cell-based. (In general: In western blotting, separated proteins are transferred to a membrane and probed.)
In data set [5] the test system is Zika virus. Briefly: Antiviral activity against ZIKV ZG-01 infected in African green monkey Vero cells assessed as reduction in viral induced cytopathic effect by measuring reduction in PFU measured after 4 days by neutral red staining based plaque assay. It counts as functional, organism-based. To be noted: ZG-01, Vero, 96 h; for EC90: time 4 day.
Data set [6] has as its system SNB-19. Kind of data set: Cytotoxicity against human SNB-19 cells assessed as cell growth inhibition measured after 24 hrs by MTT assay. In kind it is functional.
The subject of data set [7] is A549. Briefly: Downregulation of ZIKV E protein cleaved caspase 3 expression in human A549 cells at 2.5 to 25 uM by immunofluorescence analysis. Conditions: dose 2.5-25 µM. It counts as functional, cell-based.
Data set [8] concerns A549. Briefly: Downregulation of ZIKV E protein cleaved caspase 3 expression in human A549 cells at 5 to 25 uM measured after 48 hrs by Western blotting analysis. Conditions: dose 5-25 µM. In kind it is functional, cell-based.
Data set [9] concerns A549. Briefly: Cytotoxicity against human A549 cells assessed as cell growth inhibition measured after 24 hrs by MTT assay. In kind it is functional.
Data set [10] has as its system Zika virus. Kind of data set: Antiviral activity against ZIKV MR766 infected in human A549 cells assessed as reduction in viral induced cytopathic effect by measuring reduction in PFU measured after 4 days by neutral red staining based plaque assay. Conditions: MR766, A549, 96 h; for EC90: time 4 day. It counts as functional, organism-based.
Data set [11] concerns Huh-7. Kind of data set: Cytotoxicity against human Huh-7 cells assessed as cell growth inhibition measured after 24 hrs by MTT assay. In kind it is functional.
The nature of data set [12]: Cytotoxicity against African green monkey Vero cells assessed as cell growth inhibition measured after 24 hrs by MTT assay. In kind it is toxicity, cell-based. Conditions: chlorocebus sabaeus.
In data set [13] the test system is Zika virus. Briefly: Antiviral activity against ZIKV ZG-01 infected in human SNB-19 cells assessed as reduction in viral induced cytopathic effect by measuring reduction in PFU measured after 4 days by neutral red staining based plaque assay. It counts as functional, organism-based. To be noted: ZG-01, SNB-19, 96 h; for EC90: time 4 day.
Data set [14] has as its system Zika virus. Briefly: Antiviral activity against ZIKV MR766 infected in human Huh-7 cells assessed as reduction in viral induced cytopathic effect by measuring reduction in PFU measured after 4 days by neutral red staining based plaque assay. It counts as functional, organism-based. Conditions: MR766, Huh-7, 96 h; for EC90: time 4 day.
Data set [15] relates to Zika virus. Kind of data set: Antiviral activity against ZIKV MR766 infected in African green monkey Vero cells assessed as reduction in viral induced cytopathic effect by measuring reduction in PFU measured after 4 days by neutral red staining based plaque assay. In kind it is functional, organism-based. Conditions: 96 h; for EC90: time 4 day.
Data set [16] relates to A549. Kind of data set: Induction of mitochondrial membrane potential loss in human A549 cells at 50 to 100 uM by JC-1 staining based fluorescence microscope. In kind it is functional, cell-based. To be noted: dose 50-100 µM.
Data set [17] relates to Zika virus. Kind of data set: Antiviral activity against ZIKV ZG-01 infected in human Huh-7 cells assessed as reduction in viral induced cytopathic effect by measuring reduction in PFU measured after 4 days by neutral red staining based plaque assay. In kind it is functional, organism-based. Conditions: ZG-01, Huh-7, 96 h; for EC90: time 4 day.
The subject of data set [18] is A549. Kind of data set: Downregulation of ZIKV E protein cleaved caspase 3 expression in human A549 cells at 5 to 25 uM by immunofluorescence analysis. It counts as functional, cell-based. Conditions: dose 5-25 µM.
Data set [19] has as its system Vero. Briefly: Downregulation of ZIKV E protein cleaved caspase 3 expression in African green monkey Vero cells at 10 to 50 uM measured after 48 hrs by Western blotting analysis. It counts as functional, cell-based. To be noted: Chlorocebus sabaeus, dose 10-50 µM.
Data set [20] concerns A549. Briefly: Downregulation of ZIKV E protein cleaved caspase 3 expression in human A549 cells at 10 to 50 uM measured after 48 hrs by Western blotting analysis. Conditions: dose 10-50 µM. In kind it is functional, cell-based.

The structures appear in SMILES notation. Activity calls are given as the source filed them. The calls are words filed in the database; no cut-off is given here.

Sequence of NS5 (A0A143MHK7 whole entry, the tested form may be a part): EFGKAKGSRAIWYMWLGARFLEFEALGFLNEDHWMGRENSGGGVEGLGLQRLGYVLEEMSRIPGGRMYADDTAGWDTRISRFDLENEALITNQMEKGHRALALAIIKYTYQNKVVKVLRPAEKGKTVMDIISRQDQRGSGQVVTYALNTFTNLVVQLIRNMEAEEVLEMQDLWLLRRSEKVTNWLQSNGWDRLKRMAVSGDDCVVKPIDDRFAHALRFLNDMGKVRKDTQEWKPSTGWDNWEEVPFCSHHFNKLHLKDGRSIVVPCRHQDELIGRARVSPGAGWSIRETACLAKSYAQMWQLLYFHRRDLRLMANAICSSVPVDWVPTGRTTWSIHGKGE

Consider `Cc1ncnc2c1c(C#Cc1ccc(Br)c(F)c1)cn2[C@@H]1O[C@H](CO)[C@@H](O)[C@@]1(C)F`, for which the EC50 (in general, the concentration needed to bring the measured effect to its halfway point) in data set [1] is 8.9 µM; in data set [3], 2.8 µM; in data set [5] it was 3.1 µM; in data set [10] it was 6.4 µM; in data set [13] it was 6.4 µM; in data set [14], 6.1 µM. Moreover, the results for the EC50 in data set [15] and in data set [17] were 7.7 µM and 5.7 µM, respectively. Besides, the concentration for an effect of 90% (EC90) – broadly, the concentration needed for an effect of 90% – came to 19.8 µM in [1]; 6.8 µM in data set [3]; 7.1 µM in data set [5]; 18 µM in data set [10]; 16.6 µM in [13]; 14.6 µM in data set [14]. In addition, the EC90 in data set [15] is 18.6 µM; in data set [17], 16.4 µM. Also, the Kd (usually the free concentration of one partner at which half of the binding sites on the other are occupied at equilibrium, for simple one-to-one binding) in data set [2] was determined as 1.87 µM. The result in data set [4], in [7] and in data set [8] was Active. Moreover, the CC50 (as a rule, the concentration that lowers cell viability or growth by half) in data set [6] is 49.4 µM; in [9] it was greater than 50 µM; in data set [11] it was 43.8 µM. Further, in data set [12], the cytotoxic concentration (CC50) at 24 h turned out to be 46.8 µM. Moreover, the result in [16] was inactive.
On to `NC(=O)c1ncn([C@@H]2O[C@H](CO)[C@@H](O)[C@H]2O)n1` [RIBAVIRIN], for which the EC50 in data set [1] is greater than 80 µM; in [3], 36.1 µM; in [5] it was greater than 80 µM; in [10], 38.1 µM; in data set [13], greater than 80 µM; in data set [14], 17.7 µM. The EC50 was greater than 80 µM in data set [15] and 14.1 µM in data set [17]. Also, the EC90 in data set [1] was greater than 80 µM; in data set [3], 70.3 µM; in [5] it was greater than 80 µM; in data set [10], 75.9 µM; in [13], greater than 80 µM; in data set [14], 51 µM. Also, the 90% effect concentration (EC90) in [15] was greater than 80 µM; in data set [17] it was 47.4 µM. Also, the outcome in data set [18], in data set [19] and in [20] was inactive. The figures for the CC50 in [6], in data set [9] and in data set [11] were 485 µM, greater than 50 µM and 513 µM, respectively. Further, the CC50 at 24 h in data set [12] is 470 µM.
